PMC3248976 (Bioorganic & medicinal chemistry letters, 2011)
Values belong to the compound of their own block, whether it stands above or below them.

Experiments:
Format in all cases: cell-based
[1] = molecular target: T1, S1P4-R (human Endothelial Differentiation Gene 6; EDG6) (Homo sapiens, UniProt O95977); assay: Tango S1P4-BLA U2OS beta-arrestin/beta-lactamase reporter agonist assay; settings: for S1P4-R agonist activity in words: concentrations up to 25 μM; for fold more potent than the hit 2 / fold decrease in potency compared to the hit 2: S1P4-R EC50 ratio vs hit 2; for fold less potent than 22p: S1P4-R EC50 ratio vs 22p
T1 sequence (O95977 1-384): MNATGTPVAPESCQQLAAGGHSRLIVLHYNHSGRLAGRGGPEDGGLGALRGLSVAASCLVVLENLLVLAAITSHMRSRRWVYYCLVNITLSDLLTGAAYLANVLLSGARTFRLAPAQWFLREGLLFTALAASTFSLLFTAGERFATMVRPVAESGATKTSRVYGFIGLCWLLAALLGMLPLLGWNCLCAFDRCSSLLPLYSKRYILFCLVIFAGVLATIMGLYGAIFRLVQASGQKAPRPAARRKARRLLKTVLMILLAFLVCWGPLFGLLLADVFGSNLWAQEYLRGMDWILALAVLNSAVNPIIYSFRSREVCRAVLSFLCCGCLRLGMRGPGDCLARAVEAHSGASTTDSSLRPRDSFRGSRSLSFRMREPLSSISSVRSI

S1P1-R = S1P1-R (Homo sapiens, UniProt P21453); assay: S1P1–3,5-Rs selectivity counter screen, S1P1-R; settings: mean of n = 3; NA = not active at concentrations up to 25 μM
S1P2-R = S1P2-R (Homo sapiens, UniProt O95136); assay: S1P1–3,5-Rs selectivity counter screen, S1P2-R; settings: mean of n = 3; NA = not active at concentrations up to 25 μM
S1P5-R = S1P5-R (Homo sapiens, UniProt Q9H228); assay: S1P1–3,5-Rs selectivity counter screen, S1P5-R; settings: mean of n = 3; NA = not active at concentrations up to 25 μM
S1P3-R = S1P3-R (Homo sapiens, UniProt Q99500); assay: S1P1–3,5-Rs selectivity counter screen, S1P3-R; settings: mean of n = 3; NA = not active at concentrations up to 25 μM
Sequence of S1P3-R (Q99500 whole entry): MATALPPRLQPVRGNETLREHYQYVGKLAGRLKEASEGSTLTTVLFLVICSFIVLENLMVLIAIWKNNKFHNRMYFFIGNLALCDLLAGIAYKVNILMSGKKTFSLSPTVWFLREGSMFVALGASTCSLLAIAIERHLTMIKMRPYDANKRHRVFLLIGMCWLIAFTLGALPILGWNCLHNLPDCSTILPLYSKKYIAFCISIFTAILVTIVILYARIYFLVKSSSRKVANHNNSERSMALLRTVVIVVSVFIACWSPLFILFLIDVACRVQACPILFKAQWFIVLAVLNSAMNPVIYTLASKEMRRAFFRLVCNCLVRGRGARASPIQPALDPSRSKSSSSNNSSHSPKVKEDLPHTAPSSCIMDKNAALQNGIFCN

Sequence of S1P2-R (O95136 whole entry): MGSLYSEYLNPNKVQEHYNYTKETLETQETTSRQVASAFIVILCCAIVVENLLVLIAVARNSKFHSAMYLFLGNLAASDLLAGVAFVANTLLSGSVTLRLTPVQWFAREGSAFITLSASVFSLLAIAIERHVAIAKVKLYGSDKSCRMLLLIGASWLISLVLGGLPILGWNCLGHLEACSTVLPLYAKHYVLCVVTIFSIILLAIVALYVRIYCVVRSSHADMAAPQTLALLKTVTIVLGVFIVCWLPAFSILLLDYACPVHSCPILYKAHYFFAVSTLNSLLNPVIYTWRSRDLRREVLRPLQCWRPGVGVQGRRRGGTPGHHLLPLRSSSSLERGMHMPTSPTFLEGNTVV
Sequence of S1P5-R (Q9H228 whole entry): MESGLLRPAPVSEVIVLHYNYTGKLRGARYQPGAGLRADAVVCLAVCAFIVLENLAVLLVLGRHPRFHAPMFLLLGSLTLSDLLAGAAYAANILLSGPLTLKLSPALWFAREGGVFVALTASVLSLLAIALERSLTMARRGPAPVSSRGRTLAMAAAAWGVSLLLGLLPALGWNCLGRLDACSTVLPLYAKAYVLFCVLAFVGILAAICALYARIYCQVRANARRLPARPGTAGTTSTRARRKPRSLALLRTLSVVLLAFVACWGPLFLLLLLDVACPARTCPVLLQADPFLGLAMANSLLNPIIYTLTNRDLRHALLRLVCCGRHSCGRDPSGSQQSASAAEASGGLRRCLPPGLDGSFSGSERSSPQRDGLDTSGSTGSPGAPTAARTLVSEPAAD
Sequence of S1P1-R (P21453 whole entry): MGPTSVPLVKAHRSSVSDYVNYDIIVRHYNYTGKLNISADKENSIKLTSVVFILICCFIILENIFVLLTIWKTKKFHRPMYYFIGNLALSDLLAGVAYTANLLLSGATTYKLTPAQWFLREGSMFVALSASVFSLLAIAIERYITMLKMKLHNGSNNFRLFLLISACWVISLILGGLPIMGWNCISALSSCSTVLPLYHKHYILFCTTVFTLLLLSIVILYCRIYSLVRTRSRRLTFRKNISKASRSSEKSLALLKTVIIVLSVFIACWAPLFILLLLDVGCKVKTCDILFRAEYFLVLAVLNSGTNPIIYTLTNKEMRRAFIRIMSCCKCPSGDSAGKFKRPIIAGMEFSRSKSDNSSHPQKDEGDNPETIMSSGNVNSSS

SMILES: Cc1ccc(OCCOc2ccccc2)c([N+](=O)[O-])n1 [8f]
S1P4-R agonist activity in words [1]: complete loss of activity

SMILES: Cc1ccc(OCCOc2ccc(Cl)cc2)c([N+](=O)[O-])n1 [8b]
S1P4-R agonist activity in words [1]: complete loss of activity

SMILES: Cc1ccc(OCCOc2cc(Cl)cc([N+](=O)[O-])c2)c([N+](=O)[O-])n1 [8q]
fold decrease in potency compared to the hit 2 [1]: 22 fold

SMILES: Cc1ccc(OCCOc2ccccc2Cl)c([N+](=O)[O-])n1 [8a]
S1P4-R agonist activity in words [1]: complete loss of activity

SMILES: Cc1ccc(OCCCc2ccc(Cl)cc2Cl)c([N+](=O)[O-])n1 [13b]
fold decrease in potency compared to the hit 2 [1]: 5–6 fold

SMILES: Cc1ccc(OCCOc2ccc(Br)cc2C(F)(F)F)c([N+](=O)[O-])n1 [8r]
fold less potent than 8h ([1]; S1P4-R EC50 ratio vs 2-chloro analog 8h): 3 fold

SMILES: Cc1ccc(OCCCOc2ccc(Cl)cc2Cl)c([N+](=O)[O-])n1 [13a]
S1P4-R agonist activity in words [1]: complete loss of activity

SMILES: Cc1ccc(OCCOc2c(Cl)cc(Cl)cc2Cl)c([N+](=O)[O-])n1 [8s]
fold decrease in potency compared to the hit 2 [1]: 3 fold

SMILES: Cc1ccc(OC(=O)COc2ccc(Cl)cc2Cl)c([N+](=O)[O-])n1 [13d]
S1P4-R agonist activity in words [1]: complete loss of activity

SMILES: Cc1ccc(OCCOc2ccc(Cl)cc2Cl)c([N+](=O)[O-])n1 [compound 2, 3-(2-(2,4-dichlorophenoxy)ethoxy)-6-methyl-2-nitropyridine]
EC50 nM, S1P1-R (S1P1-R): no agonistic activity | EC50 nM, S1P2-R (S1P2-R): no agonistic activity | EC50 nM, S1P5-R (S1P5-R): no agonistic activity | EC50 nM, S1P3-R (S1P3-R): no agonistic activity

Now from value to compound:

fold more potent than the hit 2 [1]: 3 fold
SMILES: Clc1ccc(OCCOc2ccc(Br)nc2Br)c(Cl)c1 [22n]

fold decrease in potency compared to the hit 2 [1]: 8 fold
SMILES: Cc1ccc(OCCOc2ccc(Cl)cc2Cl)c([N+](=O)[O-])c1 [22c]

fold less potent than 22p [1]: 4 fold
SMILES: OCc1ccc(OCCOc2ccc(Cl)cc2Cl)c(I)n1 [22t]

fold less potent than 22p [1]: 38 fold
SMILES: O=Cc1ccc(OCCOc2ccc(Cl)cc2Cl)c(I)n1 [22u]

fold decrease in potency compared to the hit 2 [1]: 18 fold
SMILES: O=[N+]([O-])c1ncccc1OCCOc1ccc(Cl)cc1Cl [22a]

fold less active than the 2-iodine counterpart 22t ([1]; S1P4-R EC50 ratio vs 22t): 5 fold
SMILES: OCc1ccc(OCCOc2ccc(Cl)cc2Cl)c(Cl)n1 [22v]

fold more potent than the hit 2 [1]: 3.5 fold
SMILES: FCc1ccc(OCCOc2ccc(Cl)cc2Cl)c(Cl)n1 [22aa]

fold less potent than 22l ([1]; S1P4-R EC50 ratio vs 22l): 4 fold | fold more potent than 22m ([1]; S1P4-R EC50 ratio vs 22m): 6 fold
SMILES: Fc1ccc(OCCOc2ccc(Cl)cc2Cl)c(Br)n1 [22o]

fold more potent than the hit 2 [1]: 3 fold
SMILES: Cc1ccc(OCCOc2ccc(Cl)cc2Cl)c(Br)n1 [22l]

fold decrease in potency compared to the hit 2 [1]: 2 fold
SMILES: O=[N+]([O-])c1nc(Cl)ccc1OCCOc1ccc(Cl)cc1Cl [22d]
